Test results as given in patent publication US20030055263A1, “Carboxylic acid derivatives, medicaments comprising these compounds, their use and processes for their production” (Boehringer Ingelheim Pharma KG, priority 2001, published 2003).

The compounds below were run against T1, telomerase in nuclear extracts from HeLa cells (Homo sapiens, UniProt O14746) (assay: Telomerase test in nuclear extracts from HeLa cells (method of Morin)). Settings: HeLa nuclear extract, 120 minutes at 30° C., inhibitor 1 nM to 100 μM, 32P-dGTP incorporation quantified by Phospho-Imager.
T1 construct: The activity of telomerase in nuclear extracts from HeLa cells; endogenous in cells; host or cells: HeLa-S3 (ATCC CCL-2.2) nuclear extract
T1 sequence (O14746 whole entry): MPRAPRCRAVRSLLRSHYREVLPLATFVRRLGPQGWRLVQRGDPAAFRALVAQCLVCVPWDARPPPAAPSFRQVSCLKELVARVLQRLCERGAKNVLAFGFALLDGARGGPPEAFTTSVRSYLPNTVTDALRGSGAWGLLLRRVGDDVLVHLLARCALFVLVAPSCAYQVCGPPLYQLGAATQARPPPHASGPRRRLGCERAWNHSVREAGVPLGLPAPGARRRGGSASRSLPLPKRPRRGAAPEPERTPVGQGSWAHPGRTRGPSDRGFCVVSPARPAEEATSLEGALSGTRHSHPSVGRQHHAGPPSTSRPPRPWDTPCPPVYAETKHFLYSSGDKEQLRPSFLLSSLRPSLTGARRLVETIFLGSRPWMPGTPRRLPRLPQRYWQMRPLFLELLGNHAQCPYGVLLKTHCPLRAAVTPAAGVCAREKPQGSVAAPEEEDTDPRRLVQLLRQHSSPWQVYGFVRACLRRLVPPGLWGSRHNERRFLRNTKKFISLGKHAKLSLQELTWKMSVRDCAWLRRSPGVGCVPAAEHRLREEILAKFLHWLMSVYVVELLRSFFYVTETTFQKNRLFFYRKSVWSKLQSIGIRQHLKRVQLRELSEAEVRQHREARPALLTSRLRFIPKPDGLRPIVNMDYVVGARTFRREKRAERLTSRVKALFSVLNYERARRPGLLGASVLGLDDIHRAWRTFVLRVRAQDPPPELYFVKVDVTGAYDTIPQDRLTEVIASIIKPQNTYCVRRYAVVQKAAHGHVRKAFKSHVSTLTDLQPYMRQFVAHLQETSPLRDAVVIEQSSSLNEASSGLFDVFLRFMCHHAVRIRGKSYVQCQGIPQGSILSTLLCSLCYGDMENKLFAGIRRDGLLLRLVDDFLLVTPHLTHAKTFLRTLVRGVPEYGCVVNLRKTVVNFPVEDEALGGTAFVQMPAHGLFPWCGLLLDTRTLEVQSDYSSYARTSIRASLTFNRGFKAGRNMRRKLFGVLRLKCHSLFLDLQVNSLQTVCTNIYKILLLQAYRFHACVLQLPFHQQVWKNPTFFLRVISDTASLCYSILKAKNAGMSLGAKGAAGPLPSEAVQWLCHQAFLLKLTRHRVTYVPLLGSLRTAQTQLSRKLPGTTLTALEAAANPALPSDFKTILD
T1 sequence (O60832 whole entry partner): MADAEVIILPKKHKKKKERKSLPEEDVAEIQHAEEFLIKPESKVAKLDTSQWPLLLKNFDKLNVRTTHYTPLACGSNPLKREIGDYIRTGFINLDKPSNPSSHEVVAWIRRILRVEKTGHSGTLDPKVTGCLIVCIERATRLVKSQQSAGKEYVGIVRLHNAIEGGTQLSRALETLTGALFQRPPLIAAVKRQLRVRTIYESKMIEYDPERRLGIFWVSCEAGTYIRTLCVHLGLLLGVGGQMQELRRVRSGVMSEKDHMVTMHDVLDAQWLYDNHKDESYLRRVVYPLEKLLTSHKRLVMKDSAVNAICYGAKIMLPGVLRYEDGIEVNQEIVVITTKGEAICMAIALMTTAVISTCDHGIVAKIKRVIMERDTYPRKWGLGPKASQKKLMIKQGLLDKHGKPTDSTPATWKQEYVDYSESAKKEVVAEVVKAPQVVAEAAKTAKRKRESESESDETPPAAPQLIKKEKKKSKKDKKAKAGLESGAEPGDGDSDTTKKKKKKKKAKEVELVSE
T1 sequence (Q9NX24 whole entry partner): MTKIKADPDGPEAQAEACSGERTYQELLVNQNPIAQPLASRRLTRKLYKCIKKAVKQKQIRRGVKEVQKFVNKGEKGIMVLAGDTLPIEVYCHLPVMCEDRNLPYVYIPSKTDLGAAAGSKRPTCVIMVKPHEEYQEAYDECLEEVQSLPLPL
T1 sequence (Q9NPE3 whole entry partner): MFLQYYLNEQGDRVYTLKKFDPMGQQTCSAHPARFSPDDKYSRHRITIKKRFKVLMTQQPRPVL
T1 sequence (Q9NY12 whole entry partner): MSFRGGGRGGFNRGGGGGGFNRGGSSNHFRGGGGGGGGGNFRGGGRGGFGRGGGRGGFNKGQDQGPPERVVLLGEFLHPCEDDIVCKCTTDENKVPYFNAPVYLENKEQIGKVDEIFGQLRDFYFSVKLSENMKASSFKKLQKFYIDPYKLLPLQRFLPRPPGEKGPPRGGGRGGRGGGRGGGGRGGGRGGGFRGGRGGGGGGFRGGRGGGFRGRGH
T1 sequence (Q9BUR4 whole entry partner): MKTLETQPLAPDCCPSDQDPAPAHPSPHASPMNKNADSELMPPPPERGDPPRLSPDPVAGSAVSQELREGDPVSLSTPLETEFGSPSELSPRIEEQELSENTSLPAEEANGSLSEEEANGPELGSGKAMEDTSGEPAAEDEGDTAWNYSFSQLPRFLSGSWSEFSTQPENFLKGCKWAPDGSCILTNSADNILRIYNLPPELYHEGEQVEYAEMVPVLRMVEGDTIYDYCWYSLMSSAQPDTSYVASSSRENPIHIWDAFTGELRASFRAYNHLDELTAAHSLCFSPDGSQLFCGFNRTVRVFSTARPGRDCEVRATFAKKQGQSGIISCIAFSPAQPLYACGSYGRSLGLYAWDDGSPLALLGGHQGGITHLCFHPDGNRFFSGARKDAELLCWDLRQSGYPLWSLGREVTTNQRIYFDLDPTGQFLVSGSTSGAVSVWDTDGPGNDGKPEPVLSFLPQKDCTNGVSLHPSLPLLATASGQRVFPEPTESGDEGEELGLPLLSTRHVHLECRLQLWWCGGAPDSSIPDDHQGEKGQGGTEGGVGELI
Assay type: biochemical
Description: 1. Preparation of nuclear extracts from HeLa cells: Nuclear extracts were prepared according to Dignam (Dignam et al. in Nucleic Acids Res. 11, 1475-1489 (1983)). All the steps were carried out at 4° C., all the equipment and solutions were pre-cooled to 4° C. At least 1×10^9 HeLa-S3 cells growing in suspension culture (ATCC catalogue number CCL-2.2) were harvested by centrifuging for 5 minutes at 1000×g and washed once with PBS buffer ([…]; 2.7 mM KCl; 8.1 mM Na2HPO4; 1.5 mM KH2PO4) . After the cell volume had been determined, the cells were suspended in 5 times the volume of hypotonic buffer (10 mM HEPES/KOH, pH 7.8; 10 mM KCl; 1.5 mM MgCl2) and then left for 10 minutes at 4° C. After centrifuging for 5 minutes at 1000×g the cell pellet was suspended in twice the volume of hypotonic buffer in the presence of 1 mM DTE and 1 mM PMSF and broken up with a Dounce homogeniser. The homogenised material was made isotonic with 0.1 volume of 10-fold saline buffer (300 mM HEPES/KOH, pH 7.8; 1.4 M KCl; 30 mM MgCl2). The cell nuclei were separated from the ingredients of the cytoplasm by centrifuging and then suspended in twice the volume of nuclear extraction buffer (20 mM HEPES/KOH, pH 7.9; 420 mM KCl; 1.5 mM MgCl2; 0.2 mM EDTA; 0.5 mM DTE; 25% glycerol). The nuclei were broken up using a Dounce homogeniser and incubated for 30 minutes at 4° C. with gentle stirring. Any insoluble ingredients were removed by centrifuging for 30 minutes at 10.000 rpm (SS-34 Rotor). Then the nuclear extract was dialysed for 4-5 hours against AM-100 buffer (20 mM tris/HCl, pH 7.9; 100 mM KCl; 0.1 mM EDTA; 0.5 mM DTE; 20% glycerol). The nuclear extracts obtained were frozen in liquid nitrogen and stored at −80° C.
2. Telomerase test: The activity of telomerase in nuclear extracts from HeLa cells was determined using the method described by Morin (Morin in Cell 59. 521-529 (1989)). […] If the inhibition constant of potential telomerase inhibitors was to be determined, these were also added to the telomerase reaction in a concentration range of from 1 nM to 100 μM. […]
For O=C(O)c1ccccc1C(=O)Nc1nc(-c2ccc3ccccc3c2)cs1 [Example 3, 2-[4-(naphthalin-2-yl)-thiazol-2-ylaminocarbonyl]-benzoic acid], the IC50 was less than 5000 nM. O=C(O)C1=C(C(=O)Nc2nc(-c3ccc4ccccc4c3)cs2)CCC1 [Example 35, 2-[4-(naphthalin-2-yl)-thiazol-2-ylaminocarbonyl]-cyclopent-1-ene-carboxylic acid] was tested, and the IC50 was less than 1000 nM. Compound O=C(O)c1ccccc1Nc1nccc(-c2ccc3ccccc3c2)n1 [Example 50, 2-[4-(naphthalin-2-yl)-pyrimidin-2-ylamino]-benzoic acid] has an IC50 of less than 1000 nM.
